Data from patent publication US20260053811A1, “METHODS OF TREATING HYPERTENSION IN OBESE SUBJECTS” (Mineralys Therapeutics, Inc., priority 2022, published 2026).

System: hypertensive subjects
Assay: Seated automated office blood pressure (AOBP) in randomized, placebo-controlled, dose-ranging study
Assay type: in vivo, human
Settings: Part 1
Method: A randomized, double-blinded, placebo-controlled, dose-ranging, multicenter study was conducted to evaluate the effect of orally administered Compound A HBr on blood pressure for the treatment of hypertension in male and female subjects ≥18 years of age.
The study consists of two parts. For enrollment into Part 1 of the study, a subject's value of plasma renin activity (PRA) must be ≤1 ng/mL/h based on morning measurement. If the value of PRA >1 ng/mL/h based on morning measurement, then subjects may be eligible to enter Part 2 of the study.
For Part 1, 163 enrolled subjects ≥18 years of age were randomized into 6 equal treatment groups (1:1:1:1:1:1) to 12.5 mg BID, 25 mg BID, 12.5 mg QD, 50 mg QD, 100 mg QD, or placebo. After a review of interim clinical data, the 2 lowest dose levels (12.5 mg QD and 12.5 mg BID) were stopped for future randomization due to a lack of consistent meaningful reduction of blood pressure, but the patients randomized to that point remained in the study through completion. Thus, after the review of interim clinical data, subjects were randomized into 4 equal treatment groups (1:1:1:1) to 25 mg BID, 50 mg QD, 100 mg QD, or placebo.
For Part 2, 36 enrolled subjects ≥18 years of age were randomized (5:1) to either 100 mg QD Compound A HBr or placebo such that the Compound A HBr treatment group consisted of approximately 30 subjects and the placebo treatment group will consist of approximately 6 subjects.
Subjects orally administered the assigned study drug (Compound A HBr or placebo) according to the assigned dosing regimen for 8 weeks beginning on Study Day 1. All subjects in Part 1 (regardless of dosing group) received BID dosing to preserve the integrity of the blind; active drug is administered as the morning dose for all QD dose groups. Subjects returned to the research facility or were seen by the clinical investigator or approved home health care professional at the end of Study Weeks 1, 2, 3, 4, 5, 6, 7, and 8 (±2 days) for protocol-defined efficacy and safety assessments and procedures, assessment of adverse events (AEs), and confirmation of compliance with study drug usage. Subjects also completed a telephone visit and blood pressure (BP) check at home approximately 3 days post last dose of study drug. Subjects attended up to 14 full clinic visits, including a pre-Screening visit, a Screening/start of Placebo Run-in visit, a second visit during Placebo Run-in, a clinic visit to initiate the ABPM procedure, a Randomization visit, 8 weekly visits during double-blind treatment, and an end-of-study visit scheduled 4 weeks after the last study treatment for final efficacy and safety assessments.
An automated oscillometric sphygmomanometer device was used to measure the subjects' systolic and diastolic blood pressure in office after approximately 5 minutes of rest in the seated position.
The primary endpoint is the change in office-measured (mean of last 2 of 5 unattended measurements using an automated oscillometric sphygmomanometer device after approximately 5 minutes of rest in the seated position) systolic blood pressure (SBP) from baseline to the end of Study Week 8.
Secondary endpoints of this study were: • (a) Change in 24-hour ambulatory blood pressure monitoring (ABPM) parameters (systolic and diastolic) from baseline to the end of Study Week 7. • (b) Change in office-measured SBP from baseline to the end of Study Weeks 1, 2, 3, 4, 5, 6, and 7. • (c) Change in office-measured diastolic blood pressure (DBP) from baseline to the end of Study Weeks 1, 2, 3, 4, 5, 6, 7, and 8. • (d) Proportion of subjects who achieve office-measured BP of ≤130/80 mm Hg by the end of Study Week 8.

[1] = 25 mg BID, BMI at baseline 25-30 kg/m^2
[2] = 25 mg BID, BMI at baseline <25 kg/m^2
[3] = 25 mg BID, BMI at baseline >30 kg/m^2
[4] = 25 mg BID, Seated SBP Tertile High
[5] = 25 mg BID, Seated SBP Tertile Low
[6] = 25 mg BID, Seated SBP Tertile Middle
[7] = 25 mg BID, Systolic Blood Pressure Tertile at Baseline High
[8] = 25 mg BID, Systolic Blood Pressure Tertile at Baseline Low
[9] = 25 mg BID, Systolic Blood Pressure Tertile at Baseline Middle
[10] = 25 mg BID, Thiazide Diuretic Use at Baseline No
[11] = 25 mg BID, Thiazide Diuretic Use at Baseline Yes

SMILES: CC(=O)N[C@H]1CC[C@H](NC(=O)CN2CCN(c3nncc(-c4ccc(C)cc4)n3)CC2)CC1 [Compound A HBr]
- Mean (SD) Change from Baseline at Week 8 in Automated Office-Measured Diastolic Blood Pressure (25 mg BID, BMI >30 kg/m^2): −5.33 (8.88) mmHg
- Mean (SD) Automated Office-Measured Systolic Blood Pressure at Wk 8 [1]: 134.11 (15.72) mmHg
- Mean (SD) Change from Baseline at Week 8 in Automated Office-Measured Systolic Blood Pressure [1]: −4.89 (13.17) mmHg
- Mean (SD) Automated Office-Measured Systolic Blood Pressure at Wk 8 [2]: 126.25 (18.52) mmHg
- Mean (SD) Change from Baseline at Week 8 in Automated Office-Measured Systolic Blood Pressure [2]: −18.13 (15.56) mmHg
- Mean (SD) Automated Office-Measured Systolic Blood Pressure at Wk 8 [3]: 130.93 (17.43) mmHg
- Mean (SD) Change from Baseline at Week 8 in Automated Office-Measured Systolic Blood Pressure [3]: −11.13 (13.83) mmHg
- Mean (SD) Automated Office-Measured Diastolic Blood Pressure at Wk 8 (25 mg BID, Race Black or AA): 75.43 (10.05) mmHg
- Mean (SD) Automated Office-Measured Systolic Blood Pressure at Wk 8 (25 mg BID, Race Black or AA): 124.00 (15.68) mmHg
- Mean (SD) Change from Baseline at Week 8 in Automated Office-Measured Diastolic Blood Pressure (25 mg BID, Race Black or AA): −7.79 (9.03) mmHg
- Mean (SD) Change from Baseline at Week 8 in Automated Office-Measured Systolic Blood Pressure (25 mg BID, Race Black or AA): −13.29 (15.91) mmHg
- Mean (SD) Automated Office-Measured Diastolic Blood Pressure at Wk 8 (25 mg BID, Race Other): 75.43 (14.14) mmHg
- Mean (SD) Automated Office-Measured Systolic Blood Pressure at Wk 8 (25 mg BID, Race Other): 133.71 (16.53) mmHg
- Mean (SD) Change from Baseline at Week 8 in Automated Office-Measured Diastolic Blood Pressure (25 mg BID, Race Other): −2.31 (12.36) mmHg
- Mean (SD) Change from Baseline at Week 8 in Automated Office-Measured Systolic Blood Pressure (25 mg BID, Race Other): −9.07 (13.59) mmHg
- Mean (SD) Automated Office-Measured Diastolic Blood Pressure at Wk 8 [4]: 74.00 (7.39) mmHg
- Mean (SD) Change from Baseline at Week 8 in Automated Office-Measured Diastolic Blood Pressure [4]: −7.36 (5.62) mmHg
- Mean (SD) Automated Office-Measured Diastolic Blood Pressure at Wk 8 [5]: 72.40 (9.55) mmHg
- Mean (SD) Change from Baseline at Week 8 in Automated Office-Measured Diastolic Blood Pressure [5]: −6.15 (8.84) mmHg
- Mean (SD) Automated Office-Measured Diastolic Blood Pressure at Wk 8 [6]: 79.09 (17.89) mmHg
- Mean (SD) Change from Baseline at Week 8 in Automated Office-Measured Diastolic Blood Pressure [6]: 0.91 (15.57) mmHg
- Mean (SD) Automated Office-Measured Diastolic Blood Pressure at Wk 8 (25 mg BID, Sex Female): 77.12 (15.02) mmHg
- Mean (SD) Automated Office-Measured Systolic Blood Pressure at Wk 8 (25 mg BID, Sex Female): 132.88 (16.99) mmHg
- Mean (SD) Change from Baseline at Week 8 in Automated Office-Measured Diastolic Blood Pressure (25 mg BID, Sex Female): −2.41 (13.79) mmHg
- Mean (SD) Change from Baseline at Week 8 in Automated Office-Measured Systolic Blood Pressure (25 mg BID, Sex Female): −10.62 (14.75) mmHg
- Mean (SD) Automated Office-Measured Diastolic Blood Pressure at Wk 8 (25 mg BID, Sex Male): 72.82 (9.34) mmHg
- Mean (SD) Automated Office-Measured Systolic Blood Pressure at Wk 8 (25 mg BID, Sex Male): 128.82 (16.45) mmHg
- Mean (SD) Change from Baseline at Week 8 in Automated Office-Measured Diastolic Blood Pressure (25 mg BID, Sex Male): −5.64 (7.70) mmHg
- Mean (SD) Change from Baseline at Week 8 in Automated Office-Measured Systolic Blood Pressure (25 mg BID, Sex Male): −9.36 (13.49) mmHg
- Mean (SD) Automated Office-Measured Systolic Blood Pressure at Wk 8 [7]: 139.86 (16.99) mmHg
- Mean (SD) Change from Baseline at Week 8 in Automated Office-Measured Systolic Blood Pressure [7]: −14.14 (13.63) mmHg
- Mean (SD) Automated Office-Measured Systolic Blood Pressure at Wk 8 [8]: 120.70 (13.06) mmHg
- Mean (SD) Change from Baseline at Week 8 in Automated Office-Measured Systolic Blood Pressure [8]: −12.50 (13.48) mmHg
- Mean (SD) Automated Office-Measured Systolic Blood Pressure at Wk 8 [9]: 135.45 (15.29) mmHg
- Mean (SD) Change from Baseline at Week 8 in Automated Office-Measured Systolic Blood Pressure [9]: −5.41 (14.64) mmHg
- Automated Office-Measured Diastolic Blood Pressure, Week 8, Mean (SD) [10]: 74.36 (8.31) mmHg
- Mean (SD) Automated Office-Measured Systolic Blood Pressure at Wk 8 [10]: 132.45 (15.21) mmHg
- Mean (SD) Change from Baseline at Week 8 in Automated Office-Measured Diastolic Blood Pressure [10]: −6.09 (7.34) mmHg
- Mean (SD) Change from Baseline at Week 8 in Automated Office-Measured Systolic Blood Pressure [10]: −9.32 (14.08) mmHg
- Automated Office-Measured Diastolic Blood Pressure, Week 8, Mean (SD) [11]: 76.12 (15.60) mmHg
- Mean (SD) Automated Office-Measured Systolic Blood Pressure at Wk 8 [11]: 130.53 (17.84) mmHg
- Mean (SD) Change from Baseline at Week 8 in Automated Office-Measured Diastolic Blood Pressure [11]: −2.12 (13.83) mmHg
- Mean (SD) Change from Baseline at Week 8 in Automated Office-Measured Systolic Blood Pressure [11]: −10.65 (14.39) mmHg
- Mean (SD) Automated Office-Measured Systolic Blood Pressure at Wk 8 (50 mg QD, ACEi/ARB No): 131.13 (13.27) mmHg
- Mean (SD) Change from Baseline at Week 8 in Automated Office-Measured Systolic Blood Pressure (50 mg QD, ACEi/ARB No): −6.75 (15.62) mmHg
- Mean (SD) Automated Office-Measured Systolic Blood Pressure at Wk 8 (50 mg QD, ACEi/ARB Yes): 127.65 (14.07) mmHg
